Values of other authors, collected in article PMC6311893, “Computational prediction of plasma protein binding of cyclic peptides from small molecule experimental data using sparse modeling techniques” (BMC Bioinformatics, 2018).

System: plasma protein
Conditions: cited from earlier work

Compound | PPB (fb)
Dalbavancin | 0.93
Teixobactin | 0.84
Terlipressin | 0.3

Same assay, conditions: fraction bound (0-1); public cyclic peptide drug dataset; ref DrugBank [39]; cited from earlier work

Compound | PPB (fb)
Acetyl-Daptomycin | 0.12
Caspofungin | 0.97
Colistin | 0.904-0.929
Dactinomycin | 0.05
Daptomycin | 0.85
Desmopressin | 0.5
Lanreotide | 0.79-0.83
Oritavancin | 0.85
Pasireotide | 0.88
Polymyxin?B | 0.559
Romidepsin | 0.92-0.94
Telavancin | 0.897
Vasopressin | 0.01

System: plasma protein
Conditions: fraction bound to plasma protein; small molecule dataset, sheet 1-SM (Set Dte = test, Dtr = training); ref Ingle et al.; cited from earlier work

Compound | PPB (fb)
NS(=O)(=O)Cc1noc2ccccc12 [zonisamide] | 0.4
CN(C)CCOC1=Cc2ccccc2Sc2ccc(Cl)cc21 [zotepine] | 0.97

Same assay, conditions: fraction bound to plasma protein; small molecule dataset, sheet 1-SM, Set Dtr; ref Ingle et al.; cited from earlier work

Compound | PPB (fb)
OCCN1CCN(CC/C=C2/c3ccccc3Sc3ccc(Cl)cc32)CC1 [zuclopenthixol] | 0.98

Same assay, conditions: fraction bound to plasma protein; small molecule dataset, sheet 1-SM; ref Ingle et al.; cited from earlier work

Compound | PPB (fb)
lanatoside-C | 0.25

Same assay, conditions: plasma; cited from earlier work

Compound | PPB (fb)
Atovaquone | 1
Brotizolam | 0.9
Cefmetazole | 0.77
Cefodizime | 0.81
Cefoperazone | 0.92
Clevidipine | 1
Doxycycline | 0.89
Felodipine | 1
Fluorescein | 0.87
Gabapentin | 0.02
Iloprost | 0.6
Isradipine | 0.95
Nicardipine | 0.98
Nimodipine | 0.98
Nisoldipine | 1
Oxytetracycline | 0.2
Pyridostigmine | 0
Rifabutin | 0.76
Rolitetracycline | 0.5
Tetracycline | 0.36
Tigecycline | 0.8
Tolcapone | 0.99
acenocoumarol | 0.98

Compound | PPB (fb)
cefotiam | 0.4
ceftibuten | 0.65
demeclocycline | 0.54
dicoumarol | 0.99
ethyl-biscoumacetate | 0.9
flurazepam | 0.97
idoxuridine | 0
lacidipine | 0.95
lymecycline | 0.45
manidipine | 0.99
mepacrine | 0.9
methacycline | 0.84
nafarelin | 0.8
nilvadipine | 0.99
nitazoxanide | 0.99
norgestimate | 0.99
phenprocoumon | 0.99
polythiazide | 0.85
quinagolide | 0.9
salvianolic acid B | 0.75
spironolactone | 0.98
trichloroethanol | 0.35
